The subject of assay [1] is Interleukin-2 (IL-2) production/release in Jurkat T cells. As to the kind of experiment: Jurkat IL-2 Production Assay (PHA-stimulated, IL-2 AlphaLisa). The class given is cell-based. The settings on record: Homo sapiens, PHA 15 μg/ml, 22 h, inhibition of IL-2 production. The method, boiled down: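 Jurkat E6-1 cells (5*10^5/well, DMEM/F12 with 10% FCS) pretreated 30 min with compound, then stimulated 22 h with 15 μg/ml PHA at 37 °C. IC50 from 8-point 1:3.16 dilution starting at 10 μM.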
Background: In Alpha technology, singlet oxygen from a donor bead excites a nearby acceptor bead.

The next assay has as its target T1, CRAC channel (Homo sapiens, UniProt Q96D31).
T1 construct: endogenous in cells; host or cells: HEK293 (ECACC), untransfected
As to the kind of experiment: HEK Calcium Influx Assay (FLIPR), inhibition of store-operated Ca2+ entry after thapsigargin store depletion. The class given is cell-based. The settings on record: 10 μM compound, HEK293 cells, read-out: % inhib. [@ 10 μM] FLIPR. The method, boiled down:
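HEK293 cells loaded with Calcium-4 dye in Ca2+-free HBS (pH 7.4), stores depleted with 2 μM thapsigargin for 10 min (100 μM EGTA); after 3 mM CaCl2 re-addition and 15 min steady-state, compounds added and FLIPR signal averaged 9.5–10 min post-dose. IC50 from 8-point 1:3.16 dilutions from 10 μM, normalised to DMSO and non-depleted wells.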

For 27 molecules, IC50 and inhibition results are on record in US20160151337A1, “ANNELATED PYRROLES AND THEIR USE AS CRAC INHIBITORS” (Grünenthal GmbH, priority 2013, published 2016).

Molecules are shown by their SMILES. Where only a bound is given, the exact number is not on record here.

As usually defined, the IC50 is the point on the concentration scale where inhibition reaches its midpoint.

T1 sequence (Q96D31 whole entry): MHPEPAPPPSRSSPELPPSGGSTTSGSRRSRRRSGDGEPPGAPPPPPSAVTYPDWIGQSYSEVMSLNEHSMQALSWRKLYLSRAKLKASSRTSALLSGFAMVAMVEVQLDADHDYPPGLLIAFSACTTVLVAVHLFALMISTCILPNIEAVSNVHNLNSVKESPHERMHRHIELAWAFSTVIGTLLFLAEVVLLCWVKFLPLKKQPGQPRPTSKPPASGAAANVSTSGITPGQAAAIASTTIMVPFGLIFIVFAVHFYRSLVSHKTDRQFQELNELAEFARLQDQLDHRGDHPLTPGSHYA

Regarding `Cc1cc(C#N)cnc1N1CCc2[nH]c(C3CCCCC3)cc2C1` [Example 102, 6-(2-Cyclohexyl-4,5,6,7-tetrahydro-1H-pyrrolo[3,2-c]pyridin-5-yl)-5-methyl-nicotinonitrile], the IC50 in assay [1] is 0.5 to 1 µM. The inhibition at 10 µM at CRAC channel is greater than 70%.

On to `COc1cc2c(cc1N1CCc3[nH]c(C4CCCCC4)cc3C1)CCS2(=O)=O` [Example 103, 5-(2-Cyclohexyl-4,5,6,7-tetrahydro-1H-pyrrolo[3,2-c]pyridin-5-yl)-6-methoxy-2,3-dihydro-benzo[b]thiophene 1,1-dioxide], for which the IC50 in assay [1] was less than 0.5 µM. Moreover, at CRAC channel, the inhibition at 10 µM was less than 50%.

On to `Cc1cc(CS(C)(=O)=O)ncc1N1CCc2[nH]c(-c3c(F)cccc3F)cc2C1` [Example 104, 2-(2,6-Difluoro-phenyl)-5-[4-methyl-6-(methylsulfonyl-methyl)-pyridin-3-yl]-4,5,6,7-tetrahydro-1H-pyrrolo[3,2-c]pyridine], for which the 50% inhibitory concentration (IC50) in assay [1] fell in the range of 1 to 5 µM. Also, the inhibition at 10 µM on CRAC channel is greater than 70%.

Take `COCc1ccc(N2CCc3[nH]c(-c4c(F)cccc4F)cc3C2)c(C)c1` [Example 105, 2-(2,6-Difluoro-phenyl)-5-[4-(methoxymethyl)-2-methyl-phenyl]-4,5,6,7-tetrahydro-1H-pyrrolo[3,2-c]pyridine]: the half-maximal inhibitory concentration (IC50) in assay [1] lay within 0.5 to 1 µM. Further, at CRAC channel, the inhibition at 10 µM is greater than 70%.

With `Cn1nc(C2CC2)cc1N1CCc2[nH]c(-c3c(F)cccc3F)cc2C1` [Example 106, 5-(5-Cyclopropyl-2-methyl-2H-pyrazol-3-yl)-2-(2,6-difluoro-phenyl)-4,5,6,7-tetrahydro-1H-pyrrolo[3,2-c]pyridine], in assay [1], the IC50 was in the range of 0.5 to 1 µM. Moreover, the inhibition at 10 µM at CRAC channel is greater than 70%.

Consider `Cn1nc(N2CCc3[nH]c(-c4c(F)cccc4F)cc3C2)cc1C1CC1` [Example 107, 5-(5-Cyclopropyl-1-methyl-1H-pyrazol-3-yl)-2-(2,6-difluoro-phenyl)-4,5,6,7-tetrahydro-1H-pyrrolo[3,2-c]pyridine], for which the IC50 in assay [1] lay within 1 to 5 µM. Moreover, on CRAC channel, the inhibition at 10 µM is greater than 70%.

Take `Cc1cc(S(C)(=O)=O)ncc1N1CCc2[nH]c(-c3ccncc3Cl)cc2C1` [Example 108, 2-(3-Chloro-pyridin-4-yl)-5-(4-methyl-6-methylsulfonyl-pyridin-3-yl)-4,5,6,7-tetrahydro-1H-pyrrolo[3,2-c]pyridine]: the IC50 in assay [1] lay within 0.5 to 1 µM. For the same molecule, the inhibition at 10 µM at CRAC channel was less than 50%.

With `Cc1cc(S(=O)(=O)N2CCC2)ccc1N1CCc2[nH]c(-c3c(F)cccc3F)cc2C1` [Example 109, 5-[4-(Azetidin-1-ylsulfonyl)-2-methyl-phenyl]-2-(2,6-difluoro-phenyl)-4,5,6,7-tetrahydro-1H-pyrrolo[3,2-c]pyridine], in assay [1], the half-inhibitory concentration (IC50) was less than 0.5 µM. The inhibition at 10 µM at CRAC channel is less than 50%.

With `Cc1cc(S(C)(=O)=O)c(F)cc1N1CCc2[nH]c(C3CCCCC3)cc2C1` [Example 110, 2-Cyclohexyl-5-(5-fluoro-2-methyl-4-methylsulfonyl-phenyl)-4,5,6,7-tetrahydro-1H-pyrrolo[3,2-c]pyridine], the IC50 in assay [1] is 1 to 5 µM. Further, the inhibition at 10 µM on CRAC channel was less than 50%.

Regarding `Cc1cc(OC(F)(F)F)ncc1N1CCc2[nH]c(-c3c(F)cccc3F)cc2C1` [Example 111, 2-(2,6-Difluoro-phenyl)-5-[4-methyl-6-(trifluoromethyloxy)-pyridin-3-yl]-4,5,6,7-tetrahydro-1H-pyrrolo[3,2-c]pyridine], the IC50 in assay [1] was less than 0.5 µM. Further, on CRAC channel, the inhibition at 10 µM is less than 50%.

As to `COc1cc(C(F)(F)F)ncc1N1CCc2[nH]c(-c3c(F)cccc3F)cc2C1` [Example 112, 2-(2,6-Difluoro-phenyl)-5-[4-methoxy-6-(trifluoromethyl)-pyridin-3-yl]-4,5,6,7-tetrahydro-1H-pyrrolo[3,2-c]pyridine], in assay [1], the IC50 is less than 0.5 µM. In addition, the inhibition at 10 µM at CRAC channel is less than 50%.

With `Fc1cccc(F)c1-c1cc2c([nH]1)CCN(c1cnc(C(F)(F)F)cc1C1CC1)C2` [Example 113, 5-[4-Cyclopropyl-6-(trifluoromethyl)-pyridin-3-yl]-2-(2,6-difluoro-phenyl)-4,5,6,7-tetrahydro-1H-pyrrolo[3,2-c]pyridine], in assay [1], the 50% inhibitory concentration (IC50) is less than 0.5 µM. Besides, the inhibition at 10 µM on CRAC channel is less than 50%.

For the molecule `CNS(=O)(=O)c1ccc(N2CCc3[nH]c(-c4c(F)cccc4F)cc3C2)c(C)c1` [Example 114, 4-[2-(2,6-Difluoro-phenyl)-4,5,6,7-tetrahydro-1H-pyrrolo[3,2-c]pyridin-5-yl]-N,3-dimethyl-benzenesulfonic acid amide], in assay [1], the 50% inhibitory concentration (IC50) is less than 0.5 µM. Moreover, the inhibition at 10 µM at CRAC channel is less than 50%.

For the molecule `Cc1cc(S(C)(=O)=O)ncc1N1CCc2[nH]c(C3CCCOC3)cc2C1` (stereo not drawn) [Example 115, 5-(4-Methyl-6-methylsulfonyl-pyridin-3-yl)-2-tetrahydro-pyran-3-yl-4,5,6,7-tetrahydro-1H-pyrrolo[3,2-c]pyridine], the IC50 in assay [1] is 1 to 5 µM. Further, at CRAC channel, the inhibition at 10 µM is less than 50%.

`CCOc1cc(C(F)(F)F)ncc1N1CCc2[nH]c(-c3c(F)cccc3F)cc2C1` [Example 116, 2-(2,6-Difluoro-phenyl)-5-[4-ethoxy-6-(trifluoromethyl)-pyridin-3-yl]-4,5,6,7-tetrahydro-1H-pyrrolo[3,2-c]pyridine]: in assay [1], the IC50 is less than 0.5 µM. On CRAC channel, the inhibition at 10 µM was greater than 70%.

For `Cc1cc(S(=O)(=O)N2CCOCC2)ccc1N1CCc2[nH]c(-c3c(F)cccc3F)cc2C1` [Example 117, 4-[[4-[2-(2,6-Difluoro-phenyl)-4,5,6,7-tetrahydro-1H-pyrrolo[3,2-c]pyridin-5-yl]-3-methyl-phenyl]sulfonyl]-morpholine], in assay [1], the IC50 lay within 0.5 to 1 µM. Besides, the inhibition at 10 µM on CRAC channel was greater than 70%.

Turning to `Cc1cc(S(C)(=O)=O)ncc1N1CCc2[nH]c(C3CCCC3)cc2C1` [Example 118, 2-Cyclopentyl-5-(4-methyl-6-methylsulfonyl-pyridin-3-yl)-4,5,6,7-tetrahydro-1H-pyrrolo[3,2-c]pyridine], the IC50 in assay [1] fell in the range of 1 to 5 µM. Besides, the inhibition at 10 µM on CRAC channel was greater than 70%.

Consider `Cc1cc(S(=O)(=O)N2CCCCC2)ccc1N1CCc2[nH]c(-c3c(F)cccc3F)cc2C1` [Example 119, 2-(2,6-Difluoro-phenyl)-5-[2-methyl-4-(piperidin-1-ylsulfonyl)-phenyl]-4,5,6,7-tetrahydro-1H-pyrrolo[3,2-c]pyridine], for which the IC50 in assay [1] is 1 to 5 µM. The inhibition at 10 µM on CRAC channel is less than 50%.

With `Cc1cc(S(=O)(=O)N(C)C2CC2)ccc1N1CCc2[nH]c(-c3c(F)cccc3F)cc2C1` [Example 120, N-Cyclopropyl-4-[2-(2,6-difluoro-phenyl)-4,5,6,7-tetrahydro-1H-pyrrolo[3,2-c]pyridin-5-yl]-N,3-dimethyl-benzenesulfonic acid amide], in assay [1], the half-maximal inhibitory concentration (IC50) was 1 to 5 µM. For the same molecule, the inhibition at 10 µM at CRAC channel was less than 50%.

Regarding `Cc1cc(S(=O)(=O)N2CCCC2)ccc1N1CCc2[nH]c(-c3c(F)cccc3F)cc2C1` [Example 121, 2-(2,6-Difluoro-phenyl)-5-[2-methyl-4-(pyrrolidin-1-ylsulfonyl)-phenyl]-4,5,6,7-tetrahydro-1H-pyrrolo[3,2-c]pyridine], the IC50 in assay [1] was 1 to 5 µM. The inhibition at 10 µM on CRAC channel is greater than 70%.

Consider `Cc1cc(S(C)(=O)=O)ncc1N1CCc2[nH]c(C3CCC(F)(F)CC3)cc2C1` [Example 122, 2-(4,4-Difluoro-cyclohexyl)-5-(4-methyl-6-methylsulfonyl-pyridin-3-yl)-4,5,6,7-tetrahydro-1H-pyrrolo[3,2-c]pyridine], for which the IC50 in assay [1] was 1 to 5 µM. Besides, the inhibition at 10 µM at CRAC channel was 50 to 70%.

For `Cn1nc(C2(C(F)(F)F)CC2)cc1N1CCc2[nH]c(-c3c(F)cccc3F)cc2C1` [Example 123, 2-(2,6-Difluoro-phenyl)-5-[2-methyl-5-[1-(trifluoromethyl)-cyclopropyl]-2H-pyrazol-3-yl]-4,5,6,7-tetrahydro-1H-pyrrolo[3,2-c]pyridine], in assay [1], the IC50 is 0.5 to 1 µM. The inhibition at 10 µM on CRAC channel was greater than 70%.

Take `CCn1nc(C2(C(F)(F)F)CC2)cc1N1CCc2[nH]c(-c3c(F)cccc3F)cc2C1` [Example 124, 2-(2,6-Difluoro-phenyl)-5-[2-ethyl-5-[1-(trifluoromethyl)-cyclopropyl]-2H-pyrazol-3-yl]-4,5,6,7-tetrahydro-1H-pyrrolo[3,2-c]pyridine]: in assay [1], the IC50 was less than 0.5 µM. Besides, on CRAC channel, the inhibition at 10 µM is less than 50%.

Take `CCn1nc(C2CC2)cc1N1CCc2[nH]c(-c3c(F)cccc3F)cc2C1` [Example 126, 5-(5-Cyclopropyl-2-ethyl-2H-pyrazol-3-yl)-2-(2,6-difluoro-phenyl)-4,5,6,7-tetrahydro-1H-pyrrolo[3,2-c]pyridine]: the IC50 in assay [1] was in the range of 0.5 to 1 µM. Besides, the inhibition at 10 µM at CRAC channel is greater than 70%.

In the case of `CNS(=O)(=O)c1ccc(N2CCc3[nH]c(-c4cnc(C)cc4C)cc3C2)c(C)c1` [Example 127, 4-[2-(4,6-Dimethyl-pyridin-3-yl)-4,5,6,7-tetrahydro-1H-pyrrolo[3,2-c]pyridin-5-yl]-N,3-dimethyl-benzenesulfonic acid amide], the IC50 in assay [1] fell in the range of 1 to 5 µM. The inhibition at 10 µM at CRAC channel was greater than 70%.

Regarding `CNS(=O)(=O)c1ccc(N2CCc3[nH]c(C4CCC(F)(F)CC4)cc3C2)c(C)c1` [Example 128, 4-[2-(4,4-Difluoro-cyclohexyl)-4,5,6,7-tetrahydro-1H-pyrrolo[3,2-c]pyridin-5-yl]-N,3-dimethyl-benzenesulfonic acid amide], in assay [1], the IC50 lay within 1 to 5 µM. Also, on CRAC channel, the inhibition at 10 µM is less than 50%.

For `CNS(=O)(=O)c1ccc(N2CCc3[nH]c(C4CCCCC4)cc3C2)c(C)c1` [Example 129], in assay [1], the half-maximal inhibitory concentration (IC50) was in the range of 1 to 5 µM. Further, at CRAC channel, the inhibition at 10 µM is less than 50%.
